In patent US10953040B2, “Methods of treating bacterial infections with penam β-lactam antibiotics and branched poly(ethylenimine)” (priority 2015, dated 2021):
Values after ≈ are worked out from the molar mass of the structure shown. Values joined by “and” are separate entries in the source; they are usually repeats but may differ in a detail not shown here. Equal entries are not always repeated. “Also recorded” adds a separate entry of the source. Where two headings read alike, the source gives them in different places.

Legend:
Format in all cases: cell-based
[1] = system: methicillin-resistant Staphylococcus aureus (MRSA) strain ATCC 700787; test: microbe, parasite or virus in culture; details: for MIC / concentration inhibiting MRSA growth: FIG. 6-8; for MIC: Staphylococcus aureus; for synergy with BPEI / change of efficacy against MRSA on addition of BPEI: BPEI 2.65 μg/mL, FIG. 6-10
Procedure: (§1) A stock culture was diluted in tryptic soy broth (TSB) and delivered into pre-sterilized 96-well plates. Stock solutions of BPEI and antibiotics, prepared in DMSO, were added to each well of a 96-well plate (final DMSO concentration was 1%), followed by inoculation with MRSA in TSB. Optical density measurements were performed with a Tecan Infinite M200 plate reader and an initial OD600 value recorded. The plates were incubated for 20 h in a humidified incubator at 37° C. Plates were removed, orbitally shaken, and a final OD600 value recorded. […] to obtain the change in OD600 (recorded in the figures as ΔOD600). Antimicrobial activity was determined by the change in optical density. Duplicate measurements were performed and the average reported.
(§2) Using the average ΔOD600 values, separate MIC values for BPEI and ampicillin were determined by the lowest concentration of each that inhibited growth.

[2] = system: methicillin-resistant Staphylococcus aureus (MRSA) strain ATCC 700787; test: MRSA checkerboard growth inhibition assay with FIC; details: for MIC: Staphylococcus aureus; for interaction with BPEI by FIC values (synergy / additive): OD600<0.05 = growth inhibition; for OD600 of growth media: 20 hours
Excerpt: The fractional inhibitory concentration (FIC) as used herein is a measure of the interaction of two agents, such as an antibiotic and a BPEI compound, used together, and is an indicator of synergy. FIC uses a value of the MIC of each of the independent agents, e.g., MICA and MICB for agents A and B, for a particular bacterium as the basis, then takes the concentration of each component in a mixture where an MIC(A in B) is observed. For example, for a two component system of agents A and B, MIC(A in B) is the concentration of A in the compound mixture and MIC(B in A) is the concentration of B in the compound mixture. The FIC is defined as follows: FICA=(MIC(A in B)/MICA) Eqn. 1 FICB=(MIC(B in A)/MICB) Eqn. 2 FICA+B=FICA+FICB Eqn. 3
Synergism (i.e., the two compounds together provide a synergistic effect) is defined herein as occurring when FICA+B≤0.5. The mixture is defined as having an additive effect when […]. When, FICA+B>4 the mixture is considered to have an antagonistic interaction. An example of how FIC is used to determine synergism is shown in U.S. Pat. No. 8,338,476, the entirety of which is incorporated herein by reference in its entirety.
as §1, §2

[3] = system: Escherichia coli ATCC 11775; test: E. coli growth inhibition assay (ΔOD600 after 20 h)
Procedure: (§3) The bacteria used in this work were obtained from the American Type Culture Collection (methicillin-resistant Staphylococcus aureus (MRSA) strain ATCC 700787, Staphylococcus aureus ATCC 25923, Escherichia coli ATCC 11775, Bacillus subtilis (Ehrenberg) Cohn ATCC 23059). Chemicals from Sigma-Aldrich (e.g., DMSO, ampicillin, methicillin, vancomycin, chloramphenicol, and novobiocin) were used as purchased.
as §1

[4] = system: Staphylococcus aureus ATCC 25923; test: non-resistant S. aureus growth inhibition assay (ΔOD600 after 20 h); details: ATCC25923, ampicillin by itself, FIG. 14
Procedure: as §3, §1

[5] = with BPEI 2.65 μg/mL (2.7 μg/mL)
[6] = without BPEI, checkerboard FIG. 18-21, read-out: MIC

## CC1(C)S[C@@H]2[C@H](NC(=O)[C@H](N)c3ccc(O)cc3)C(=O)N2[C@H]1C(=O)O [amoxicillin]
[1]; antibiotic without BPEI
  MIC / concentration inhibiting MRSA growth: 58 µg/mL (≈ 159 µM)
[1]; [5]
  MIC / concentration inhibiting MRSA growth: 30 µg/mL and 29 µg/mL
[2]; [6]
  MIC: > 32 µg/mL
[2]; checkerboard FIG. 18-21
  interaction with BPEI by FIC values (synergy / additive): synergistic activity

## CC1(C)S[C@@H]2[C@H](NC(=O)[C@H](N)c3ccccc3)C(=O)N2[C@H]1C(=O)O [ampicillin]
[1]; read-out: MIC for ampicillin, with BPEI 2.7 μg/mL, FIG. 2
  MIC: 12 to 25 µg/mL (≈ 34.3 to 71.5 µM)
[1]; read-out: MIC for ampicillin, with BPEI 26 μg/mL, FIG. 5
  MIC: ~1.2 µg/mL (≈ 3.43 µM)
[1]; read-out: MIC for ampicillin, without BPEI, FIG. 2
  MIC: > 50 µg/mL
[1]; read-out: MIC for ampicillin, without BPEI, FIG. 3 (second data set)
  MIC: 50 µg/mL (≈ 143 µM)
[2]; with BPEI 8 μg/mL, Table 1, read-out: ampicillin MIC
  MIC: 8 µg/mL
[2]; with low-Mw BPEI 16 μg/mL, Table 1, read-out: ampicillin MIC
  MIC: 1 µg/mL
[2]; without BPEI, Table 1, read-out: ampicillin MIC
  MIC: 32 µg/mL
[2]; [6]
  MIC: > 32 µg/mL
[2]; ampicillin 0.125 + BPEI 0 μg/mL
  OD600 of growth media: 0.4361
[2]; ampicillin 0.250 + BPEI 0 μg/mL
  OD600 of growth media: 0.4282
[2]; ampicillin 0.500 + BPEI 0 μg/mL
  OD600 of growth media: 0.4342
[2]; ampicillin 1 + BPEI 0 μg/mL
  OD600 of growth media: 0.4289
[2]; ampicillin 2 + BPEI 0 μg/mL
  OD600 of growth media: 0.4294
[2]; ampicillin 4 + BPEI 0 μg/mL
  OD600 of growth media: 0.4375
[2]; ampicillin 8 + BPEI 0 μg/mL
  OD600 of growth media: 0.4344
[2]; ampicillin 16 + BPEI 0 μg/mL
  OD600 of growth media: 0.3287
[2]; ampicillin 32 + BPEI 0 μg/mL
  OD600 of growth media: 0.0003
[2]; ampicillin 64 + BPEI 0 μg/mL
  OD600 of growth media: 0.0014
[2]; checkerboard FIG. 18-21
  interaction with BPEI by FIC values (synergy / additive): synergistic activity; also recorded: Synergy
[2]; with low-Mw BPEI 16 μg/mL
  factor by which the ampicillin MIC is lowered: 32 ×
[3]; ATCC11775, ampicillin alone, FIG. 12
  MIC: 3.7 µg/mL (≈ 10.6 µM)
[3]; ATCC11775, with BPEI 2.65 μg/mL, FIG. 12, read-out: MIC for ampicillin
  MIC: 3.7 µg/mL (≈ 10.6 µM)
[4]
  MIC: ~0.05 µg/mL (≈ 0.143 µM)

## O=C(N[C@H](CO)[C@H](O)c1ccc([N+](=O)[O-])cc1)C(Cl)Cl [chloramphenicol]
[1]
  synergy with BPEI / change of efficacy against MRSA on addition of BPEI: large synergy; also recorded: dramatic synergistic effect
[1]; antibiotic without BPEI
  MIC / concentration inhibiting MRSA growth: 50 µg/mL (≈ 155 µM)
[1]; on addition of 2.7 μg/mL BPEI, FIG. 8
  decrease in the MIC: 10 fold
[1]; [5]
  MIC / concentration inhibiting MRSA growth: 5 µg/mL (≈ 15.5 µM)

## COc1cccc(OC)c1C(=O)N[C@@H]1C(=O)N2[C@@H]1SC(C)(C)[C@@H]2C(=O)O [methicillin]
[1]; antibiotic without BPEI
  MIC / concentration inhibiting MRSA growth: > 60 µg/mL
[1]; [5]
  MIC / concentration inhibiting MRSA growth: 30 µg/mL (≈ 78.9 µM)
[2]; [6]
  MIC: > 32 µg/mL
[2]; checkerboard FIG. 18-21
  interaction with BPEI by FIC values (synergy / additive): Synergy occurred

## CO[C@@H]1[C@@H](OC(N)=O)[C@@H](O)[C@H](Oc2ccc3c(O)c(NC(=O)c4ccc(O)c(CC=C(C)C)c4)c(=O)oc3c2C)OC1(C)C [novobiocin]
[1]
  synergy with BPEI / change of efficacy against MRSA on addition of BPEI: did not show any synergy; also recorded: not substantially altered

## CN[C@H](CC(C)C)C(=O)N[C@H]1C(=O)N[C@@H](CC(N)=O)C(=O)N[C@H]2C(=O)N[C@H]3C(=O)N[C@H](C(=O)N[C@H](C(=O)O)c4cc(O)cc(O)c4-c4cc3ccc4O)[C@H](O)c3ccc(c(Cl)c3)Oc3cc2cc(c3O[C@@H]2O[C@H](CO)[C@@H](O)[C@H](O)[C@H]2O[C@H]2C[C@](C)(N)[C@H](O)[C@H](C)O2)Oc2ccc(cc2Cl)[C@H]1O [vancomycin]
[1]
  synergy with BPEI / change of efficacy against MRSA on addition of BPEI: did not show any synergy; also recorded: does not change
[2]
  MIC: 4 µg/mL
[2]; checkerboard FIG. 18-21
  interaction with BPEI by FIC values (synergy / additive): additive
